IC50 data for 19 molecules are collected here from patent US9133122B2, “Amide compounds, compositions and uses thereof” (EVOTEC AG, priority 2008, dated 2015).

Test [1] deals with T1, hP2X2/3H (Homo sapiens, UniProt P56373+Q9UBL9).
T1 construct: expressed in transfected cells
T1 sequence (P56373 1-397): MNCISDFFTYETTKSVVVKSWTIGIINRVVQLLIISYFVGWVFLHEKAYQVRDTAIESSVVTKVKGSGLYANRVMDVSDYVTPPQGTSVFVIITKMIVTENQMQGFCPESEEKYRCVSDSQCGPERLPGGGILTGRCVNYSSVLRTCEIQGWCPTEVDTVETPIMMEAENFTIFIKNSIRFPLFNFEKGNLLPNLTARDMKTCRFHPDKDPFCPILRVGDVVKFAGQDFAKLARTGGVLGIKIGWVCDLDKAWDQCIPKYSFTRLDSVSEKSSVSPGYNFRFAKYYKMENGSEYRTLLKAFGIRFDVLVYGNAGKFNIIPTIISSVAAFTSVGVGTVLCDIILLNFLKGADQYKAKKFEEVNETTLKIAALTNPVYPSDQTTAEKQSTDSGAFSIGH
T1 sequence (Q9UBL9 1-471): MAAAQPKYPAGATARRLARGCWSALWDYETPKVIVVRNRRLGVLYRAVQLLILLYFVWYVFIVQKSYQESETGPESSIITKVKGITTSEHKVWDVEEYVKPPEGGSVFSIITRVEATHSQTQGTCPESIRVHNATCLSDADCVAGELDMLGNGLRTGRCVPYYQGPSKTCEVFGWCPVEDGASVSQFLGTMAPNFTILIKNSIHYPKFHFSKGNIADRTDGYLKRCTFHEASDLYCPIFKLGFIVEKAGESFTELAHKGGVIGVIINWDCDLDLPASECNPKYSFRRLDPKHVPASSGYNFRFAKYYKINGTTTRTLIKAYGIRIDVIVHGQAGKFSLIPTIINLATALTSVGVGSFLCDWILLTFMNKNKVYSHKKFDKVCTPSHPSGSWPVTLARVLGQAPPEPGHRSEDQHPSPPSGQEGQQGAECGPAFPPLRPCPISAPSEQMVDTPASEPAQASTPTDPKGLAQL
Description: Calcium uptake assay (Ca influx), P2X antagonist assay, P2X2/3 heteromer. Format: cell-based. The following applies: inhibition of agonist-induced calcium influx. The text has this: (§1) Human P2X3 (Accession no. NM_002559), P2X2 (Accession no. NM_170682) and Rat P2X3 (Accession no. NM_031075) and P2X2 (Accession no. NM_053656) are cloned into a mammalian expression vector (e.g., pcDNAS/TO or pcDNA3 Invitrogen). The human P2X2/3 chimera clone is created as described by Neelands et al, and then cloned into an expression vector as above. Receptors are expressed in cells (e.g., HEK293 or 1321N1 (obtained from the ECACC)) via transient transfection using standard lipid mediated transfection, or by creation of stable transfectants for each receptor. For expression of the P2X2/3 heteromeric receptor, the P2X3 expression vector is stably transfected into a cell line already stably expressing P2X2. P2X2/3 heteromer function is isolated using pharmacological methods. Cell lines are maintained in DMEM+5% Glutamax, the appropriate level of selective antibiotic, and 10% heat inactivated FBS.
(§2) Functional activity of compounds at the P2X receptor is determined by measuring their ability to inhibit agonist-induced calcium influx. Compounds are tested for antagonist activity against the P2X2/3 chimera, the P2X3 homomer, or the P2X2/3 heteromer. At the start of each screening day, the agonist EC50 is determined. Compound % inhibition or IC50s are subsequently determined using a predetermined agonist concentration (EC50-90 depending on cell line) as a stimulus. The agonists used are αβMeATP, ATP, or other ATP analogs. Compounds may be tested at concentrations ranging from 1 pM to 10 μM.
(§3) To test for antagonist activity, cells expressing the appropriate receptor are seeded onto 96 or 384 well plates 18-24 hours prior to assay. On the day of the assay, cells are loaded with calcium-sensitive fluorescent dye (e.g., Fluo-4 no wash reagent-Invitrogen cat#F36206, or the BD™ PBX Calcium Assay Kit-BD cat #640175) in Hank's Buffered Salt Solution (HBSS) with up to 10 mM supplemental CaCl2. Plates are incubated at 37° C. and then equilibrated at room temperature. Antagonism of agonist-induced calcium influx is measured using a fluorescent imaging plate reader (e.g. FLIPR^TETRA, Molecular Devices, Sunnyvale, Calif.). The assay comprises two stages: a pre-treatment phase followed by a treatment phase. Compounds may be tested as follows: For the pre-treatment phase, 50 μL of 3× concentration of test compound in HBSS is added to cells containing 100 μL of dye loading media to achieve a final concentration of 1× test compound. For the treatment phase, at a set interval after pre-treatment (1-30 minutes), 50 μL of 1× test compound plus 4× agonist solution is added, resulting in a final concentration of 1× compound and 1× agonist. Fluorescence is measured at 0.1-3 second intervals—with an excitation wavelength of 494 nm and an emission wavelength of 515 nm. Responses are measured as (peak fluorescence after agonist addition) minus (baseline fluorescence prior to treatment). Percent inhibition is calculated as follows:
(§4) [formula] IC50 values are determined by analyzing dose response data in a 4 parameter logistic fit using GraphPad Prizm.
(§5) The following compounds have been or can be prepared according to the synthetic methods described herein. A calcium uptake assay was performed as described above and the activity of each compound is expressed as follows: […]

Test [2] addresses T2, hP2X3 (Homo sapiens, UniProt P56373).
T2 construct: expressed in transfected cells
T2 sequence (P56373 1-397): T1 sequence (P56373 1-397)
Briefly: Calcium uptake assay (Ca influx), P2X antagonist assay, P2X3 homomer. The following applies: inhibition of agonist-induced calcium influx. Format: cell-based.
Excerpt: as §1, §2, §3, §4, §5

As usually defined, the IC50 is the concentration at which inhibition is half-maximal. For the molecule `COc1ccccc1-c1cc(C(=O)NCc2ccc(C)nc2)cc(-c2ccc(C)cn2)c1` [Compound 18, 2′-Methoxy-5-(5-methyl-pyridin-2-yl)-biphenyl-3-carboxylic acid (6-methyl-pyridin-3-ylmethyl)-amide], the IC50 in test [1] came to 70.9 nM; in test [2], 53.5 nM.

As for `Cc1ccc(-c2cc(C(=O)N[C@@H](C)CO)cc(-c3cnccc3C#N)c2)c(C#N)c1` [Compound 86, 2′-Cyano-5-(4-cyano-pyridin-3-yl)-4′-methyl-biphenyl-3-carboxylic acid ((S)-2-hydroxy-1-methyl-ethyl)-amide], the IC50 in test [1] was determined as 28.1 nM; in test [2], 2.2 nM.

For `Cc1ccc(-c2cc(C(=O)NCc3ccc(C)nc3)cc(N3CCC[C@H]3CO)c2)cc1` [Compound 59, (S)-5-(2-(Hydroxymethyl)pyrrolidin-1-yl)-4′-methyl-N-((6-methylpyridin-3-yl)methyl)biphenyl-3-carboxamide], the results for the IC50 in test [1] and in test [2] were 127 nM and 65.8 nM, respectively.

As for `Cc1ccc(-c2cc(C(=O)NCc3ccc(C)nc3)cc(N3CCC[C@@H]3CO)c2)nc1` [Compound 63, 3-((R)-2-Hydroxymethyl-pyrrolidin-1-yl)-5-(5-methyl-pyridin-2-yl)-N-(6-methyl-pyridin-3-ylmethyl)-benzamide], the values for the IC50 in test [1] and in test [2] were 25.7 nM and 11.8 nM, respectively.

Take `Cc1ncc([C@@H](C)NC(=O)c2cc(-c3ccccn3)cc(-c3ccccc3C#N)c2)cn1` [Compound 43, 2′-Cyano-5-pyridin-2-yl-biphenyl-3-carboxylic acid [(R)-1-(2-methyl-pyrimidin-5-yl)-ethyl]-amide]: the IC50 in test [1] is 126 nM; in test [2], 24.1 nM.

Regarding `Cc1ccc(-c2cc(C(=O)NCc3ccc(C)nc3)cc(-c3cccc(F)c3F)c2)nc1` [Compound 33, 2′,3′-Difluoro-5-(5-methyl-pyridin-2-yl)-biphenyl-3-carboxylic acid (6-methyl-pyridin-3-ylmethyl)-amide], the IC50 in test [1] stood at 98.7 nM; in test [2], 122 nM.

On to `Cc1ccc(-c2cc(C(=O)NCc3ccc(C)nc3)cc(-c3cnccc3C#N)c2)nc1` [Compound 46, 3-(4-Cyano-pyridin-3-yl)-5-(5-methyl-pyridin-2-yl)-N-(6-methyl-pyridin-3-ylmethyl)-benzamide], for which the IC50 amounted to 8.8 nM in test [1] and 7.3 nM in test [2].

Regarding `Cc1ccc(-c2cc(C(=O)N[C@H](C)c3cnc(C)nc3)cc(-c3ccccc3C(=O)N(C)C)c2)nc1` [Compound 54, 5′-(5-Methyl-pyridin-2-yl)-biphenyl-2,3′-dicarboxylic acid 2-dimethylamide 3′-{[(R)-1-(2-methyl-pyrimidin-5-yl)-ethyl]-amide}], the IC50 in test [1] came to 509 nM; in test [2] it was 55.2 nM.

Regarding `Cc1ccc(-c2cc(C(=O)N[C@@H](C)CO)cc(-c3cnccc3C#N)c2)nc1` [Compound 84, 3-(4-Cyano-pyridin-3-yl)-N-((S)-2-hydroxy-1-methyl-ethyl)-5-(5-methyl-pyridin-2-yl)-benzamide], the IC50 came out at 850 nM in test [1] and 10.3 nM in test [2].

Take `Cc1ccc(-c2cc(C(=O)N[C@H](C)c3cnc(C)nc3)cc(-c3cccc(F)c3C#N)c2)nc1` [Compound 52, 2′-Cyano-3′-fluoro-5-(5-methyl-pyridin-2-yl)-biphenyl-3-carboxylic acid [(R)-1-(2-methyl-pyrimidin-5-yl)-ethyl]-amide]: the IC50 in test [1] stood at 37.5 nM; in test [2], 26.2 nM.

For the molecule `COc1ncc(-c2cc(C(=O)NCc3ccc(C)nc3)cc(-c3ccc(C)cn3)c2)cn1` [Compound 16, 3-(2-Methoxy-pyrimidin-5-yl)-5-(5-methyl-pyridin-2-yl)-N-(6-methyl-pyridin-3-ylmethyl)-benzamide], the IC50 in test [1] came to 269 nM; in test [2], 95.6 nM.

For `Cc1ccc(-c2cc(C(=O)NCc3ccc(C)nc3)cc(-c3ccccc3OC(F)(F)F)c2)nc1` [Compound 14, 5-(5-Methyl-pyridin-2-yl)-2′-trifluoromethoxy-biphenyl-3-carboxylic acid (6-methyl-pyridin-3-ylmethyl)-amide], the IC50 in test [1] is 172 nM; in test [2], 318 nM.

On to `Cc1ccc(-c2cc(C(=O)N[C@@H](C)CO)cc(-c3cc(C)ccc3C#N)c2)nc1` [Compound 71, 2′-Cyano-5′-methyl-5-(5-methyl-pyridin-2-yl)-biphenyl-3-carboxylic acid ((S)-2-hydroxy-1-methyl-ethyl)-amide], for which the concentration for half-maximal inhibition (IC50) came to 240 nM in test [1] and 43.6 nM in test [2].

For `Cc1ccc(-c2cc(C(=O)NCc3ccc(C)nc3)cc(-c3cnc(N)cn3)c2)nc1` [Compound 41, 3-(5-Amino-pyrazin-2-yl)-5-(5-methyl-pyridin-2-yl)-N-(6-methyl-pyridin-3-ylmethyl)-benzamide], the results for the IC50 in test [1] and in test [2] were 169 nM and 23.8 nM, respectively.

Take `Cc1ccc(-c2cc(C(=O)NCc3ccc(C)nc3)cc(N3CCC[C@@H]3CO)c2)cc1` [Compound 62, 5-((R)-2-Hydroxymethyl-pyrrolidin-1-yl)-4′-methyl-biphenyl-3-carboxylic acid (6-methyl-pyridin-3-ylmethyl)-amide]: the IC50 in test [1] came to 47.4 nM; in test [2], 45.7 nM.

`Cc1ccc(-c2cc(C(=O)NCc3ccc(C)nc3)cc(-c3cccnc3C#N)c2)nc1` [Compound 42, 3-(2-Cyano-pyridin-3-yl)-5-(5-methyl-pyridin-2-yl)-N-(6-methyl-pyridin-3-ylmethyl)-benzamide]: the IC50 is 50.5 nM in test [1] and 15.1 nM in test [2].

`Cc1ccc(-c2cc(C(=O)N[C@H](C)c3cnc(C)nc3)cc(N3CCCCC3=O)c2)cc1` [Compound 39, (R)-4′-Methyl-N-(1-(2-methylpyrimidin-5-yl)ethyl)-5-(2-oxopiperidin-1-yl)biphenyl-3-carboxamide]: the IC50 in test [1] was 82 nM; in test [2], 38.8 nM.

Consider `Cc1ccc(-c2cc(C(=O)NCc3cnc(C)nc3)cc(-c3ccc(C)cn3)c2)cc1` [Compound 1, 4′-Methyl-5-(5-methyl-pyridin-2-yl)-biphenyl-3-carboxylic acid (2-methyl-pyrimidin-5-ylmethyl)-amide], for which the IC50 in test [1] is 87.6 nM; in test [2] it was 58.8 nM.

For the molecule `COCC(CO)NC(=O)c1cc(-c2ccc(C)cn2)cc(-c2cc(C)ccc2C#N)c1` (centres unmarked) [Compound 74, 2′-Cyano-5′-methyl-5-(5-methyl-pyridin-2-yl)-biphenyl-3-carboxylic acid (2-hydroxy-1-methoxymethyl-ethyl)-amide], the results for the IC50 in test [1] and in test [2] were 5580 nM and 138 nM, respectively.
